The target in test [1] is T1, Dual specificity tyrosine-phosphorylation-regulated kinase 2 (Homo sapiens) (UniProt Q92630).
T1 sequence (whole entry): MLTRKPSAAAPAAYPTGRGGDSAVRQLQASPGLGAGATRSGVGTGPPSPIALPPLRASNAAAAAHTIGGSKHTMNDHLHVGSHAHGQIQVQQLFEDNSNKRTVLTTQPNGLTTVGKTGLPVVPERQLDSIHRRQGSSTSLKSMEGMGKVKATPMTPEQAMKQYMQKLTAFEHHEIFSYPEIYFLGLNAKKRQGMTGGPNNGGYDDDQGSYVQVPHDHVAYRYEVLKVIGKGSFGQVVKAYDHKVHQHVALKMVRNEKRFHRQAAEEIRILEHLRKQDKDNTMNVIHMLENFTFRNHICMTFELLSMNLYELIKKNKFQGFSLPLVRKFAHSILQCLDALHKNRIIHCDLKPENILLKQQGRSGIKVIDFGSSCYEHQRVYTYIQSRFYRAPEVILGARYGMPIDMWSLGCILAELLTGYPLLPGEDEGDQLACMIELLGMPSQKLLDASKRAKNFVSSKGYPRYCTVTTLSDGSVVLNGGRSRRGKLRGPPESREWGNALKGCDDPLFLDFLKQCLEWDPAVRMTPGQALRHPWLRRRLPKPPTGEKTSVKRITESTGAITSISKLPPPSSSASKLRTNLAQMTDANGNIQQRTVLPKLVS
Description: DYRK2 SGC Tm panel (DSF). The note with it: for ΔTm: Compound concentration 10.0 uM.

The target of test [2] is 5-hydroxytryptamine receptor 1B (Homo sapiens) (UniProt P28222). The note with it: Compound concentration 10.0 uM.
The species entered for the next test is Rattus norvegicus. As to conditions: Compound concentration 10.0 uM.
For test [3], the target named is Transcription initiation factor TFIID subunit 1 (Homo sapiens) (UniProt P21675). The test can be described thus: TAF1 SGC Tm panel (DSF). As to conditions: for ΔTm: Compound concentration 10.0 uM.
Sequence of Transcription initiation factor TFIID subunit 1 (Homo sapiens) (P21675 whole entry): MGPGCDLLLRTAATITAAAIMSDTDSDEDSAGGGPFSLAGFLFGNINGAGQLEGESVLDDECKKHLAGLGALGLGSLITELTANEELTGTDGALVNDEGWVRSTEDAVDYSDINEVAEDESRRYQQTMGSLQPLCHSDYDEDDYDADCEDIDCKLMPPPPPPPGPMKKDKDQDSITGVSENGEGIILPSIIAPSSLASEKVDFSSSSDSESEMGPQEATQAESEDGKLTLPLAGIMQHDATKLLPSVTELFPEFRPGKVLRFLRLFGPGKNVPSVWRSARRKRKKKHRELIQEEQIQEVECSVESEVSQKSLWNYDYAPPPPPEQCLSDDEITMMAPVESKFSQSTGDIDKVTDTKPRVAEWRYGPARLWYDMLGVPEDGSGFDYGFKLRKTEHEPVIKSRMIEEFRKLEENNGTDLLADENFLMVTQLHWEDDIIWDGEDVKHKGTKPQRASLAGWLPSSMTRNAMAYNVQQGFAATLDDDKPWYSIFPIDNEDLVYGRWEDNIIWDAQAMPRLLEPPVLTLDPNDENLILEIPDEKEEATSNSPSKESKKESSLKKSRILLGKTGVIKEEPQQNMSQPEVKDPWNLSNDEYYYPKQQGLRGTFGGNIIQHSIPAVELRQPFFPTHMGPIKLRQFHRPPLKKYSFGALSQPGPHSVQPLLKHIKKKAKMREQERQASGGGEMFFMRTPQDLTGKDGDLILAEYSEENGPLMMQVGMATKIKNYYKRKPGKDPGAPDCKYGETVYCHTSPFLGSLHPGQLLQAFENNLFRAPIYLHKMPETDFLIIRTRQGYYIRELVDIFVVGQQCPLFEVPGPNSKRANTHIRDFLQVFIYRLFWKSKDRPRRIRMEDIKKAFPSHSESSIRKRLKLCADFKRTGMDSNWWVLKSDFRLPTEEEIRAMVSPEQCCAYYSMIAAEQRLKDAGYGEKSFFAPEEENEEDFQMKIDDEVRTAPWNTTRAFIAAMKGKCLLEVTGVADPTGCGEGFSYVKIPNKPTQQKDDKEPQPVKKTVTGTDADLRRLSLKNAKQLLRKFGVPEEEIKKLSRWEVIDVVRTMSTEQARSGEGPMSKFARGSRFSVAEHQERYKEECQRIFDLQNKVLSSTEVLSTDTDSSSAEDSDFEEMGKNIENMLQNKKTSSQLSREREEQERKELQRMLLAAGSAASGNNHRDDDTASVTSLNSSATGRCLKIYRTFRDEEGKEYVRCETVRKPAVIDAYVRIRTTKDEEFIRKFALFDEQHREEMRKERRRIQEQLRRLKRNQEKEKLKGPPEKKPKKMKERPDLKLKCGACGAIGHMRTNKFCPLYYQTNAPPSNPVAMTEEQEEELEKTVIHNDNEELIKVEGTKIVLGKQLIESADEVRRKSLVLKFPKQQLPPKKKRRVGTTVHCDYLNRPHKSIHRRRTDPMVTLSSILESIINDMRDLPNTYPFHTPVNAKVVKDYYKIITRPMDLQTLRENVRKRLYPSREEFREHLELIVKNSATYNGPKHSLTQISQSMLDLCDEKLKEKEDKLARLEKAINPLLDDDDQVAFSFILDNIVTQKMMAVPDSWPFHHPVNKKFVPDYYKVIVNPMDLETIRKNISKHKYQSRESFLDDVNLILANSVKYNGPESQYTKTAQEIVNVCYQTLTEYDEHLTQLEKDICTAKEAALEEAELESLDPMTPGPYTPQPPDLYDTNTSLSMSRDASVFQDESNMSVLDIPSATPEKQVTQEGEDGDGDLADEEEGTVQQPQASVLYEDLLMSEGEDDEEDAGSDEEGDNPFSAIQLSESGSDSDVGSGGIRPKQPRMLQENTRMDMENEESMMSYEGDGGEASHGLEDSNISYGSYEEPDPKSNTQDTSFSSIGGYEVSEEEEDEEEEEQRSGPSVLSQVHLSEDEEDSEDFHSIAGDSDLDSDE
Test [4] deals with Beta-1 adrenergic receptor (Homo sapiens) (UniProt P08588). As to conditions: Compound concentration 10.0 uM.
For test [5], the target named is T2, Ferrochelatase, mitochondrial (Homo sapiens) (UniProt P22830).
T2 sequence (whole entry): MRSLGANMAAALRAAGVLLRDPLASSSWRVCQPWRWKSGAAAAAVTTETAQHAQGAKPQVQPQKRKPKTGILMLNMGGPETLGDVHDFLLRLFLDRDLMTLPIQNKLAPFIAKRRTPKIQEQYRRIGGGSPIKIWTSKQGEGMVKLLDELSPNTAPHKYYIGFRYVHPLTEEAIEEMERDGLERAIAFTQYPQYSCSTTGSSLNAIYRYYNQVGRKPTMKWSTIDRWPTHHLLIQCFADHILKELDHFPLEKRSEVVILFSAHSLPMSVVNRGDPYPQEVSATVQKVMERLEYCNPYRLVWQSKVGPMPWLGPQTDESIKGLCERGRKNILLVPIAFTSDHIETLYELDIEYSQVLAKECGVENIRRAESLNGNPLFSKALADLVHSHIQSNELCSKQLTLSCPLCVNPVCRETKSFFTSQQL
Description: FECHHS SGC Tm panel (DSF). As to conditions: for ΔTm: Compound concentration 10.0 uM.

Test [6] concerns the target MAP kinase-activated protein kinase 2 (Homo sapiens) (UniProt P49137). Description: MAPKAPK2 SGC Tm panel (DSF). The note with it: for ΔTm: Compound concentration 10.0 uM.
Test [7] concerns the target Histamine H2 receptor (Homo sapiens) (UniProt P25021). As to conditions: Compound concentration 10.0 uM.
Another test concerns the target T3, Peregrin (Homo sapiens) (UniProt P55201).
T3 sequence (whole entry): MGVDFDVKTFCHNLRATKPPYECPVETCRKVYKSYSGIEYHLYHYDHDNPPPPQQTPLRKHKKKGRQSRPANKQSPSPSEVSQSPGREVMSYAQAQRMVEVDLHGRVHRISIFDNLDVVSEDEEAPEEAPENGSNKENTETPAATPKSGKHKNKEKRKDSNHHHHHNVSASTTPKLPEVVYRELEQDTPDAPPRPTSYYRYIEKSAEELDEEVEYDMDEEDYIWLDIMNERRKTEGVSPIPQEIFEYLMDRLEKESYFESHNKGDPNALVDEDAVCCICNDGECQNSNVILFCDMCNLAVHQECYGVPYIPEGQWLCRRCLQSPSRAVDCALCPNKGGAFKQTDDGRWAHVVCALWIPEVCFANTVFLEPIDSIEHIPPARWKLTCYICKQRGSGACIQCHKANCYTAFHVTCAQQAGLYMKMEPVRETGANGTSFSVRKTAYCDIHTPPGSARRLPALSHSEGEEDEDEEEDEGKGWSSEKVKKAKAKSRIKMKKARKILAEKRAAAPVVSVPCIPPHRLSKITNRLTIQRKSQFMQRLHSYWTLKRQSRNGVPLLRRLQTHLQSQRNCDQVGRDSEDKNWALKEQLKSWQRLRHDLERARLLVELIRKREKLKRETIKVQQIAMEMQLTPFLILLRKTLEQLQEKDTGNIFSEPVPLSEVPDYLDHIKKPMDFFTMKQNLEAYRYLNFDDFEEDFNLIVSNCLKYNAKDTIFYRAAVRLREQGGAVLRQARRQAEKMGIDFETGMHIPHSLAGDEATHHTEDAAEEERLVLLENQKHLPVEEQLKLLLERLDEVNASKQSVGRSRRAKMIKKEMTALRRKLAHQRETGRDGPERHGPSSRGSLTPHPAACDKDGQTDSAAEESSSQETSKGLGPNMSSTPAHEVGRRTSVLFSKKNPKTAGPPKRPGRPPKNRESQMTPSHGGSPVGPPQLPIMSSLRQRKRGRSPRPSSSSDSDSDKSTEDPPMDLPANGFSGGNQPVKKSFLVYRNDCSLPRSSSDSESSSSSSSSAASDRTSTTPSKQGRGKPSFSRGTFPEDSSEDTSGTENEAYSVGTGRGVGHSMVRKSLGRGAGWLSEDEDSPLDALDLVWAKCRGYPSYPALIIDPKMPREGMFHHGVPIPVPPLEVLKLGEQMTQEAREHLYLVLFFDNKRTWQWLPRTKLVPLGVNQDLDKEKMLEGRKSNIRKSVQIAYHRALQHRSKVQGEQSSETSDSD
The test can be described thus: BRPF1 SGC Tm panel (DSF). As to conditions: for ΔTm: Compound concentration 10.0 uM.

Test [8] addresses Death-associated protein kinase 1 (Homo sapiens) (UniProt P53355). Description: DAPK1 SGC Tm panel (DSF). The note with it: for ΔTm: Compound concentration 10.0 uM.
Test [9] has as its target Ephrin type-A receptor 5 (Homo sapiens) (UniProt P54756). The test can be described thus: EPHA5 SGC Tm panel (DSF). The note with it: for ΔTm: Compound concentration 10.0 uM.
Test [10] has as its target Mitogen-activated protein kinase 10 (Homo sapiens) (UniProt P53779). The test can be described thus: MAPK10 SGC Tm panel (DSF). As to conditions: for ΔTm: Compound concentration 10.0 uM.

The structures appear in SMILES notation.

Two compounds from ChEMBL document CHEMBL5303765, “Data for DCP probe BAY-7081” (2023) can be followed below.

Sequence of Death-associated protein kinase 1 (Homo sapiens) (P53355 whole entry, looked up): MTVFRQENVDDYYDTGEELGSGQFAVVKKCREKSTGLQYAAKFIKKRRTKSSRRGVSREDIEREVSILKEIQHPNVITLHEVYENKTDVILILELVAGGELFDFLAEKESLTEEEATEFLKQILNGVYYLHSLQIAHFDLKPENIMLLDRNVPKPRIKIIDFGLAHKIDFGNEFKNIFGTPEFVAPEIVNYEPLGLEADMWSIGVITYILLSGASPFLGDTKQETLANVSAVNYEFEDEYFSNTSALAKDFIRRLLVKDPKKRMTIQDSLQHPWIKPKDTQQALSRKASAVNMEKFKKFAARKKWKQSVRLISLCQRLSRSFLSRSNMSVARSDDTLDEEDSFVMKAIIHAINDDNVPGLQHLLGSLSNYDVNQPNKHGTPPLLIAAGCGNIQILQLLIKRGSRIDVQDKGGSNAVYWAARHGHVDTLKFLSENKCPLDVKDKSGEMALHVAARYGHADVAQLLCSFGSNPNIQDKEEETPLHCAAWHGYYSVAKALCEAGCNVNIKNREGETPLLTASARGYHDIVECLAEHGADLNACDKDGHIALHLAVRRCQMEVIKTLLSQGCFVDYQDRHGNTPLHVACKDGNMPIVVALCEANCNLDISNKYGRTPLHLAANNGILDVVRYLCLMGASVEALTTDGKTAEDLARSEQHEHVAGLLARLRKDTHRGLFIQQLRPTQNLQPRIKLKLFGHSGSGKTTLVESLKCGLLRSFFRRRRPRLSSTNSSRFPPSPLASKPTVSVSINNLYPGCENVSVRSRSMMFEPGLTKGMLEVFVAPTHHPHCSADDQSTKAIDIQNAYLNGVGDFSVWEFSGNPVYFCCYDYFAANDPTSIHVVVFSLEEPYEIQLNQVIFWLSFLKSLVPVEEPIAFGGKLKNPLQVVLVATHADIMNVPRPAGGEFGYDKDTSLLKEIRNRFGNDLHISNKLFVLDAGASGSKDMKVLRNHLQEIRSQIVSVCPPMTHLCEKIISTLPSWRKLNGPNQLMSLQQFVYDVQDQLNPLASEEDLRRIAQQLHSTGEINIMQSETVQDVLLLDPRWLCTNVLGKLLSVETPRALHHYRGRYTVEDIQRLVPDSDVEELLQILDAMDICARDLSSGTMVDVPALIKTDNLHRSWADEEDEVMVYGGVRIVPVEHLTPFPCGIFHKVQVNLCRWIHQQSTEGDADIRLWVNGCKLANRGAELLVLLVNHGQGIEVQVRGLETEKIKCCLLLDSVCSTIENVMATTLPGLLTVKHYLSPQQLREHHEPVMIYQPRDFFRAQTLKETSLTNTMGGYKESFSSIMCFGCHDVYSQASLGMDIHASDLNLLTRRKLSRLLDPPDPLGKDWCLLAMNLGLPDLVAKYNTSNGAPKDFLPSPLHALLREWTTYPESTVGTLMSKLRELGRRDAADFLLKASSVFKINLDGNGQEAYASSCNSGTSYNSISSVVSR
Sequence of Ephrin type-A receptor 5 (Homo sapiens) (P54756 whole entry): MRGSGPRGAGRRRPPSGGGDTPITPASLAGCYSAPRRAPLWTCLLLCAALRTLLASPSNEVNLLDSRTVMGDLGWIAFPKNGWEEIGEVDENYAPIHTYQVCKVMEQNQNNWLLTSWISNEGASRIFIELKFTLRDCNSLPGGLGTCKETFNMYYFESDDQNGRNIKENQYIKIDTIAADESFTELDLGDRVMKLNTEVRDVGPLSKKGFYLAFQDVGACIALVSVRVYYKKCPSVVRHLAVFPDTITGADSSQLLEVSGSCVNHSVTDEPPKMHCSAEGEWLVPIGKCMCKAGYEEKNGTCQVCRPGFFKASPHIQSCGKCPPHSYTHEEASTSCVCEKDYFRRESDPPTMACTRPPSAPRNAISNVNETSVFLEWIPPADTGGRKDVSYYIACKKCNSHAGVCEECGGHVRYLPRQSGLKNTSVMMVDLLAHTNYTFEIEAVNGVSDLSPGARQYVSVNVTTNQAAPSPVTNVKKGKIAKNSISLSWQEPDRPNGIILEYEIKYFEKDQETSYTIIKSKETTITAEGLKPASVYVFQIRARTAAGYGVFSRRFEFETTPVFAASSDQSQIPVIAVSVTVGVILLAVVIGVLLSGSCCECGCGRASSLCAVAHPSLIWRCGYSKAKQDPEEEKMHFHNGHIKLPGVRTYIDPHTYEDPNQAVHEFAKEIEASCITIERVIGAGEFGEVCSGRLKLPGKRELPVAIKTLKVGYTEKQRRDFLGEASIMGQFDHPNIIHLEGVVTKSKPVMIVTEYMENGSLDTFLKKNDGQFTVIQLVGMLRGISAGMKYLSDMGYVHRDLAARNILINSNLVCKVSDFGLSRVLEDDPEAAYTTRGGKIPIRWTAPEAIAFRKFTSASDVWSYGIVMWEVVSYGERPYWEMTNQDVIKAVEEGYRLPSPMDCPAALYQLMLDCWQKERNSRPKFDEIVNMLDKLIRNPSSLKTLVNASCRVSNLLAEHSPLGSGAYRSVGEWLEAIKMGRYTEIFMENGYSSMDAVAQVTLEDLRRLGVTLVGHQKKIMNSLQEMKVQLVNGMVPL
Sequence of Histamine H2 receptor (Homo sapiens) (P25021 whole entry): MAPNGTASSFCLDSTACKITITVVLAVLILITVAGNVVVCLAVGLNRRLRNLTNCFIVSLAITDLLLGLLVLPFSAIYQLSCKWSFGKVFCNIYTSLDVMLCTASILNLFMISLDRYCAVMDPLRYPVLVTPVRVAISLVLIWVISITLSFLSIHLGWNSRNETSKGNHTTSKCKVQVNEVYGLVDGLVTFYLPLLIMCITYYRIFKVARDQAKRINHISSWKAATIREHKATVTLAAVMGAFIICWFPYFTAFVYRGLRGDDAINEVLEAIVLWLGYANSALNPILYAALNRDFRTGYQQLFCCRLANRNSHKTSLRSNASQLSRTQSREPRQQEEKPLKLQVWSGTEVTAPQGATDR
Sequence of MAP kinase-activated protein kinase 2 (Homo sapiens) (P49137 whole entry, looked up): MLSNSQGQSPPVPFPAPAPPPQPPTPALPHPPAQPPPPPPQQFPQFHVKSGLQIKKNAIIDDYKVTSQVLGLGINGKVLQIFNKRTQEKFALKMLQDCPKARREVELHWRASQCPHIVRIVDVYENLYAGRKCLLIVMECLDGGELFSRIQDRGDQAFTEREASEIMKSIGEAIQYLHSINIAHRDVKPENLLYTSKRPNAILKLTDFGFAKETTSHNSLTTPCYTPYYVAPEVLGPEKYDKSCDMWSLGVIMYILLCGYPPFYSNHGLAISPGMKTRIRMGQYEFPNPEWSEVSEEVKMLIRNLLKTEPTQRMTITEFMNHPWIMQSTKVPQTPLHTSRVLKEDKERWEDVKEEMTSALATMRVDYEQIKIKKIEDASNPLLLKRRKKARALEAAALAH

As usually defined, the inhibition is the change of the read-out against control, counted positive when it falls. Take `CCC[C@H]1CNCc2c1[nH]c(=O)c(C#N)c2N1CCC2(CC1)CC2`: the delta Tm Staurosporine positive control in [1] was 5.55; in test [3], 0.516; in test [5], 2.89; in test [6], 3.96; on Peregrin (Homo sapiens), -0.107; in test [8] it was 9.84. Moreover, the figures for the delta Tm Staurosporine positive control in test [9] and in test [10] were 8.04 and 6.75, respectively. For the same compound, the ΔTm in test [1] is -0.198; in test [3], 1.56; in test [5] it was -1.08; in test [6], -0.289; at Peregrin (Homo sapiens), -0.754; in test [8], 0.2. Also, the ΔTm is -0.544 in [9] and -0.509 in test [10]. The inhibition in [2] is -6.99%; in the test listed under Rattus norvegicus it was 10.4%; in test [4] it was -8.08%; in test [7], 32.7%.

On to `CCC[C@@H]1CNCc2c1[nH]c(=O)c(C#N)c2N1CCC2(CC1)CC2`, for which the delta Tm Staurosporine positive control in test [1] was 5.55; in test [3], 0.516; in [5], 2.89; in test [6], 3.96; on Peregrin (Homo sapiens) it was -0.107; in test [8], 9.84. Also, the delta Tm Staurosporine positive control in test [9] amounted to 8.04; in test [10] it was 6.75. For the same compound, the ΔTm in [1] was -0.189; in test [3], 0.967; in test [5] it was -1.34; in test [6] it was -0.281; on Peregrin (Homo sapiens), -0.426; in [8], -0.225. Moreover, the ΔTm in test [9] is -0.589; in test [10], -0.405. The inhibition was 2.21% in [2], 0.4% in the test listed under Rattus norvegicus, 5.97% in test [4] and 25.3% in test [7].
